In paper PMC9764201, “Half-calcified calmodulin promotes basal activity and inactivation of the L-type calcium channel CaV1.2” (The Journal of Biological Chemistry, 2022):

System: CaV1.2
Assay: Cell-attached single-channel recording of CaV1.2 with ectopic CaM in HEK 293T/17 cells
Assay type: cell-based, rat
Settings: 110 mM Ba2+, 0 mV from -80 mV; mean±SEM (Table S3)
Procedure: HEK 293T/17 cells (ATCC) were maintained as previously described ([15], [53]). For electrophysiology, Lipofectamine 2000 (Invitrogene) or JetPrime (Polyplus Transfection) was used to transiently transfect cells with indicated plasmid DNAs in 35 mm dishes. For biochemistry experiments, transient transfection of HEK 293T/17 cells in […] dishes was achieved using either JetPrime or, as previously described ([15], [53]), the calcium phosphate method. Cells were cotransfected with plasmids encoding the pore-forming α11.2 subunit N-terminally tagged with eCFP ([15], [53]) or mCherry ([54]) plus pGWIH-based plasmids encoding the auxiliary subunits rat β2A ([55]) and rabbit α2δ-1 ([56]) as previously described ([15], [53]). For all transfections, equimolar ratio of 1:1:1 was used for CaV1.2 channel subunits and later further optimized (JetPrime) for CaM (at ratio of 1:1:1:0.5 for α11.2:β2A:α2δ−1:CaM). Rat brain α11.2 (GenBank ID: M67515.1) N-terminally fused to eCFP was utilized as previously described ([15]). The point mutations in plasmids encoding single-residue I1654A, Y1657D (this report), and K1662E exchanges in α11.2 were generated via QuikChange II as previously described ([15], [53]) using N-terminally eCFP ([15], [53]) or mCherry tagged ([54]) rat brain α11.2 plasmid template DNAs. We studied CDI using mCherry-tagged α11.2 subunit coexpressed with the other, untagged CaV1.2 subunits and WT CaM or the calmodulin 34 mutant CaM34 (kindly provided by JP Adelman, ([8])). For some biochemical experiments shown in Fig. S2, YFP-tagged CaM was used ([32]).
Single-channel recordings were performed as described previously ([15], [31]). In brief, low noise raw data were recorded with an Axopatch 200B amplifier and data were sampled at 10 kHz with a low-pass filter at 2 kHz (3 dB, four pole Bessel) and digitalized with a Digidata 1440 digitizer. Recording electrodes were pulled from borosilicate capillary glass ([…]) with a Flaming/Brown micropipette puller (Model P-97, Sutter Instruments), heat polished, and coated with Sylgard (Sylgard 289) until close to the electrode tip. Electrode resistance in solution was usually 5 to 10 MΩ. To keep the membrane potential close to 0 mV the extracellular bath solution contained (in mM) 120 K-Glutamate, 25 KCl, 2 MgCl2, 1 CaCl2, 10 EGTA, 10 Hepes, and 2 Na2-ATP pH 7.4 (KOH). The intracellular pipette solution contained (in mM) 110 BaCl2 and 10 Hepes, adjusted to pH 7.4 (TEA-OH). Cells were depolarized for 2 s from a holding potential of -80 mV to 0 mV every 7 s. Event lists were created from raw Ba^2+ currents after leak and capacity transients were digitally subtracted by pClamp 10. Unitary current events were then analyzed based on the half-height criterium ([57]) using the single-channel software provided by pClamp 10.
For statistical analysis, single-channel parameters were corrected by the channel number (k), respectively, the maximum of simultaneously open channels (PMAX). The number of channels in the patch was estimated based on the observed simultaneous openings and is a precise parameter for k < 4, as included in this article and originally described by R. Horn ([58]). On average, 100 to 200 Ba^2+ current traces were recorded for each cell for each experimental condition for an appropriate statistical analysis.
Table S3. Effects of ectopically expressed CaM and CaM34 on CaV1.2 as determined by single channel recordings with 110 mM Ba2+. HEK 293T/17 cells were transiently transfected with eCFP-tagged rat CaV1.2, α2δ1 and β2a alone or together with WT CaM (+CaM) or CaM34 (+CaM34). Parameters were corrected for the number of channels (k) in the patch. Recordings were obtained at a test potential of 0 mV from a holding potential of -80 mV. For all parameters, statistical significance p was determined for CaV1.2 without ectopic CaM expression and for CaV1.2 plus CaM34 agains CaV1.2 plus wt CaM (one-way ANOVA followed by Bonferroni test). […]

Substance: CaV1.2: WT rat brain α11.2 with α2δ1 and β2A expressed in HEK 293T/17 cells
- Availability: 77±7%
- IPeak: 19.7±4.0 fA
- MEA (mean ensemble average): 9.6±2.4 fA
- MOT (mean open time): 1.2 ± 0.2 ms
- Po: 2.3±0.6%
- unitary i: 0.81±0.03 pA
